What was measured:
[1] = system: sheep liver fluke (Fasciola hepatica); assay: Fluke egg count in faeces and adult fluke count in liver of infected sheep after a single s/c dose (Table 3); format: in vivo; conditions: for POST MORTEM RESULT No. of adult fluke: liver
Procedure: Compositions suitable for use as experimental injectable solutions were prepared by formulating the compounds as solutions of their salts either in water or in a mixture of water and ethylene glycol or water and polyethylene glycol (PEG200).
Compositions prepared by the method of Example 10 were used as a single dose to test sheep infected with sheep liver fluke (Fasciola hepatica). The number of liver fluke eggs in the faeces was measured at the time of treatment and at selected intervals up to 30 days after treatment. The sheep were killed and the number of adult fluke in the liver counted. The amount and structure of the active ingredient in each composition and the results of treatment of a sheep with that composition are given in the Table 3 below. The compositions were administered by sub-cutaneous injection (s/c).

live Fasciola hepatica = assay: Minimum effective concentration against live Fasciola hepatica in Hedon-Fleig medium (Table 4); conditions: in vitro, assessed 24 hours after treatment, read-out: MINIMUM EFFECTIVE CONCENTRATION (minimum concentration required to kill Fasciola hepatica)
Procedure: The minimum effective concentration of compounds of formula I against live Fasciola hepatica was tested by the direct application of the test compound, in solution, to live Fasciola hepatica in Hedon-Fleig medium. The results are given in Table 4 where the minimum effective concentration (minimum concentration required to kill Fasciola hepatica) was assessed 24 hours after treatment with the test compound.

For CC(=O)Oc1c(C(=C(Cl)Cl)c2cc(Cl)cc([N+](=O)[O-])c2OC(C)=O)cc(Cl)cc1[N+](=O)[O-] [Compound 17], the “FAECAL EGG COUNT, day 7” value ([1]; single dose 12.0 mg/kg) was 110 Eggs/g faeces, the “FAECAL EGG COUNT, day 14” value ([1]; single dose 12.0 mg/kg) was 0 Eggs/g faeces and the “POST MORTEM RESULT No. of adult fluke” value ([1]; single dose 12.0 mg/kg) was 0.
For CC(C)(c1cc(F)cc([N+](=O)[O-])c1O)c1cc(Cl)cc([N+](=O)[O-])c1O [Compound 20, 2-(5-chloro-2-hydroxy-3-nitrophenyl)-2-(5-fluoro-2-hydroxy-3-nitrophenyl)propane], the “FAECAL EGG COUNT, day 7” value ([1]; single dose 12.5 mg/kg) was 400 Eggs/g faeces and the “FAECAL EGG COUNT, day 14” value ([1]; single dose 12.5 mg/kg) was 140 Eggs/g faeces.
Compound O=[N+]([O-])c1cccc(COC(c2cc(Cl)cc([N+](=O)[O-])c2O)c2cc(Cl)cc([N+](=O)[O-])c2O)c1 [Compound 39] has a minimal effective concentration (live Fasciola hepatica) of 0.5 µg/mL.
For O=[N+]([O-])c1cc(Cl)cc(Cc2cc(Br)cc([N+](=O)[O-])c2O)c1O [Compound 3], the “FAECAL EGG COUNT, day 7” value ([1]; single dose 12.5 mg/kg) was 0 Eggs/g faeces, the “FAECAL EGG COUNT, day 14” value ([1]; single dose 12.5 mg/kg) was 0 Eggs/g faeces and the “POST MORTEM RESULT No. of adult fluke” value ([1]; single dose 12.5 mg/kg) was 1.
Compound O=[N+]([O-])c1cc(Cl)cc(C(OCc2cc(Cl)cc(Cl)c2)c2cc(Cl)cc([N+](=O)[O-])c2O)c1O [Compound 41] has a minimal effective concentration (live Fasciola hepatica) of 10 µg/mL.
For O=[N+]([O-])c1cc(Cl)cc(C(OCc2cccc(F)c2)c2cc(Cl)cc([N+](=O)[O-])c2O)c1O [Compound 37], the “FAECAL EGG COUNT, day 7” value ([1]; single dose 6.0 mg/kg) was 0 Eggs/g faeces, the “FAECAL EGG COUNT, day 14” value ([1]; single dose 6.0 mg/kg) was 0 Eggs/g faeces and the “POST MORTEM RESULT No. of adult fluke” value ([1]; single dose 6.0 mg/kg) was 2.
O=[N+]([O-])c1cc(Cl)cc(C(Oc2cccc(F)c2)c2cc(Cl)cc([N+](=O)[O-])c2O)c1O [Compound 34] showed a minimal effective concentration (live Fasciola hepatica) of 5 µg/mL.
CC(=O)Nc1ccc(OC(c2cc(Cl)cc([N+](=O)[O-])c2O)c2cc(Cl)cc([N+](=O)[O-])c2O)cc1 [Compound 44] showed a minimal effective concentration (live Fasciola hepatica) of 5 µg/mL.
With CC(OC(c1cc(Cl)cc([N+](=O)[O-])c1O)c1cc(Cl)cc([N+](=O)[O-])c1O)c1ccccc1 (stereo not drawn) [Compound 36] the minimal effective concentration (live Fasciola hepatica) was 1 µg/mL.
For CC(C)SC(c1cc(Cl)cc([N+](=O)[O-])c1O)c1cc(Cl)cc([N+](=O)[O-])c1O [Compound 30], the “FAECAL EGG COUNT, day 7” value ([1]; single dose 12.0 mg/kg) was 10 Eggs/g faeces, the “FAECAL EGG COUNT, day 14” value ([1]; single dose 12.0 mg/kg) was 0 Eggs/g faeces and the “POST MORTEM RESULT No. of adult fluke” value ([1]; single dose 12.0 mg/kg) was 1.
CC(C)(c1cc(F)cc([N+](=O)[O-])c1O)c1cc(F)cc([N+](=O)[O-])c1O [Compound 19, 2,2'-Isopropylidene bis(4-fluoro-6-nitrophenol)] was tested, and the “FAECAL EGG COUNT, day 7” value ([1]; single dose 12.5 mg/kg) was 210 Eggs/g faeces and the “FAECAL EGG COUNT, day 14” value ([1]; single dose 12.5 mg/kg) was 180 Eggs/g faeces.
O=[N+]([O-])c1cc(F)cc(C(=C(Cl)Cl)c2cc(F)cc([N+](=O)[O-])c2O)c1O [Compound 16] was tested, and the “FAECAL EGG COUNT, day 7” value ([1]; single dose 12.5 mg/kg) was 10 Eggs/g faeces, the “FAECAL EGG COUNT, day 14” value ([1]; single dose 12.5 mg/kg) was 10 Eggs/g faeces and the “POST MORTEM RESULT No. of adult fluke” value ([1]; single dose 12.5 mg/kg) was 0.
With O=[N+]([O-])c1ccc(SC(c2cc(Cl)cc([N+](=O)[O-])c2O)c2cc(Cl)cc([N+](=O)[O-])c2O)cc1 [Compound 52] the minimal effective concentration (live Fasciola hepatica) was 1 µg/mL.
O=[N+]([O-])c1cc(Cl)cc(C(Sc2ccc(Cl)cc2)c2cc(Cl)cc([N+](=O)[O-])c2O)c1O [Compound 51] was tested, and the “FAECAL EGG COUNT, day 7” value ([1]; single dose 12.0 mg/kg) was 10 Eggs/g faeces, the “FAECAL EGG COUNT, day 14” value ([1]; single dose 12.0 mg/kg) was 0 Eggs/g faeces and the “POST MORTEM RESULT No. of adult fluke” value ([1]; single dose 12.0 mg/kg) was 0.
For O=[N+]([O-])c1cc(Cl)cc(C(Sc2ccccc2)c2cc(Cl)cc([N+](=O)[O-])c2O)c1O [Compound 50], the “FAECAL EGG COUNT, day 7” value ([1]; single dose 12.0 mg/kg) was 100 Eggs/g faeces, the “FAECAL EGG COUNT, day 14” value ([1]; single dose 12.0 mg/kg) was 0 Eggs/g faeces and the “POST MORTEM RESULT No. of adult fluke” value ([1]; single dose 12.0 mg/kg) was 0.
For CCOC(c1cc(Cl)cc([N+](=O)[O-])c1O)c1cc(Cl)cc([N+](=O)[O-])c1O [Compound 26], the “FAECAL EGG COUNT, day 7” value ([1]; single dose 6.0 mg/kg) was 130 Eggs/g faeces, the “FAECAL EGG COUNT, day 14” value ([1]; single dose 6.0 mg/kg) was 10 Eggs/g faeces and the “POST MORTEM RESULT No. of adult fluke” value ([1]; single dose 6.0 mg/kg) was 0.
For CC(c1cc(Cl)cc([N+](=O)[O-])c1O)c1cc(Cl)cc([N+](=O)[O-])c1O [Compound 7], the “FAECAL EGG COUNT, day 7” value ([1]; single dose 5.0 mg/kg) was 0 Eggs/g faeces, the “FAECAL EGG COUNT, day 14” value ([1]; single dose 5.0 mg/kg) was 50 Eggs/g faeces and the “FAECAL EGG COUNT, day 7” value ([1]; single dose 8.0 mg/kg) was 0 Eggs/g faeces. The “FAECAL EGG COUNT, day 14” value ([1]; single dose 8.0 mg/kg) was 0 Eggs/g faeces, the “POST MORTEM RESULT No. of adult fluke” value ([1]; single dose 8.0 mg/kg) was 0 and the “FAECAL EGG COUNT, day 7” value ([1]; single dose 12.5 mg/kg) was 20 Eggs/g faeces. The “FAECAL EGG COUNT, day 14” value ([1]; single dose 12.5 mg/kg) was 0 Eggs/g faeces, the “POST MORTEM RESULT No. of adult fluke” value ([1]; single dose 12.5 mg/kg) was 0 and the “FAECAL EGG COUNT, day 7” value ([1]; single dose 20.0 mg/kg) was 0 Eggs/g faeces. The “FAECAL EGG COUNT, day 13” value ([1]; single dose 20.0 mg/kg, day 13) was 0 Eggs/g faeces and the “POST MORTEM RESULT No. of adult fluke” value ([1]; single dose 20.0 mg/kg) was 0.
In the case of COC(=O)Oc1c(C(=C(Cl)Cl)c2cc(Cl)cc([N+](=O)[O-])c2OC(=O)OC)cc(Cl)cc1[N+](=O)[O-] [Compound 18], the “FAECAL EGG COUNT, day 7” value ([1]; single dose 12.0 mg/kg) is reported as 60 Eggs/g faeces, the “FAECAL EGG COUNT, day 14” value ([1]; single dose 12.0 mg/kg) is reported as 0 Eggs/g faeces and the “POST MORTEM RESULT No. of adult fluke” value ([1]; single dose 12.0 mg/kg) is reported as 1.
